Test results: US6737383B1, “Herbicidal oxadiazolidines” (priority 1999, dated 2004)

Tests used:
[1] = test system: surinam grass; assay: Test B pre/postemergence surinam grass; type: in vivo, Brachiaria decumbens
Summary of the method: (§1)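 Response is a visual 0-to-10 score relative to untreated plants, where 0 means no effect and 10 means complete control, taken twelve to sixteen days after application. Treatments went onto soil at planting and onto foliage of 1- to 4-leaf plants, using a surfactant-containing non-phytotoxic solvent.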

[2] = test system: purple nutsedge; assay: Test B pre/postemergence purple nutsedge; type: in vivo, Cyperus rotundus
Summary of the method: as §1

[3] = test system: pigweed; assay: Test B pre/postemergence pigweed; type: in vivo, Amaranthus retroflexus
Summary of the method: as §1

[4] = test system: duck salad; assay: Test B flood test duck salad; type: in vivo, Heteranthera limosa; details: Rate 125 g/ha; Postemergence section (flood test species); scale 0 to 10, 0 no effect, 10 complete control
Description: At the same time, these crop and weed species were also treated with postemergence applications of test chemicals formulated in the same manner. Plants ranged in height from 2 to 18 cm (1- to 4-leaf stage) for postemergence treatments. Plant species in the flood test consisted of rice (Oryza sativa), smallflower flatsedge (Cyperus difformis), duck salad (Heteranthera limosa) and bamyardgrass (Echinochloa crus-galli) grown to the 2-leaf stage for testing. Treated plants and controls were maintained in a greenhouse for twelve to sixteen days, after which all species were compared to controls and visually evaluated. Plant response ratings, summarized in Table B, are based on a scale of 0 to 10 where 0 is no effect and 10 is complete control. A dash (−) response means no test result.

[5] = test system: soybean; assay: Test B pre/postemergence soybean; type: in vivo, Glycine max
Summary of the method: as §1

[6] = test system: velvetleaf; assay: Test B pre/postemergence velvetleaf; type: in vivo, Abutilon theophrasti
Summary of the method: as §1

[7] = test system: cocklebur; assay: Test B pre/postemergence cocklebur; type: in vivo, Xanthium strumarium; details: for Cocklebur plant response rating: Postemergence; for Plant response rating, Cocklebur: Preemergence
Summary of the method: as §1

[8] = test system: rape; assay: Test B pre/postemergence rape; type: in vivo, Brassica napus
Summary of the method: as §1

[9] = test system: morningglory; assay: Test B pre/postemergence morningglory; type: in vivo, Ipomoea hederacea
Summary of the method: as §1

[10] = test system: wheat; assay: Test B pre/postemergence wheat; type: in vivo, Triticum aestivum
Summary of the method: as §1

[11] = test system: bedstraw; assay: Test B pre/postemergence bedstraw; type: in vivo, Galium aparine
Summary of the method: as §1

[12] = test system: sugar beet; assay: Test B pre/postemergence sugar beet; type: in vivo, Beta vulgaris
Summary of the method: as §1

[13] = test system: giant foxtail; assay: Test B pre/postemergence giant foxtail; type: in vivo, Setaria faberii
Summary of the method: as §1

[14] = test system: crabgrass; assay: Test B pre/postemergence crabgrass; type: in vivo, Digitaria sanguinalis
Summary of the method: as §1

[15] = test system: corn; assay: Test B pre/postemergence corn; type: in vivo, Zea mays
Summary of the method: as §1

[16] = test system: blackgrass; assay: Test B pre/postemergence blackgrass; type: in vivo, Alopecurus myosuroides
Summary of the method: as §1

[17] = test system: wild oat; assay: Test B pre/postemergence wild oat; type: in vivo, Avena fatua
Summary of the method: as §1

[18] = Postemergence, Rate 62 g/ha, scale 0 to 10, 0 is no effect, 10 is complete control
[19] = Postemergence, Rate 250 g/ha, scale 0 to 10, 0 no effect, 10 complete control
[20] = Preemergence, Rate 62 g/ha, scale 0 to 10, 0 is no effect, 10 is complete control
[21] = Preemergence, Rate 125 g/ha, scale 0 to 10 (0 no effect, 10 complete control)
[22] = Preemergence, Rate 250 g/ha, scale of 0 to 10 where 0 is no effect and 10 is complete control
[23] = Preemergence, Rate 500 g/ha, scale 0 (no effect) to 10 (complete control)
[24] = Rate 125 g/ha, Postemergence, scale 0 to 10, 0 no effect, 10 complete control
[25] = Rate 500 g/ha, Postemergence, 0 to 10 scale (0 no effect, 10 complete control)
[26] = Rate 62 g/ha, scale 0 to 10, 0 is no effect, 10 is complete control

Cc1ccccc1-n1c(=O)on(C(=O)N(c2ccc(F)cc2)C2CC2)c1=O [Compound 37]
B. signalgrass plant response rating [1, 18]: 0 | B. signalgrass plant response rating [1, 19]: 0 | Plant response rating, B. signalgrass [1, 20]: 0 | Plant response rating, B. signalgrass [1, 21]: 0 | Plant response rating, B. signalgrass [1, 22]: 0 | B. signalgrass plant response rating [1, 23]: 0 | B. signalgrass plant response rating [1, 24]: 0 | B. signalgrass plant response rating [1, 25]: 0 | Nutsedge plant response rating [2, 18]: 0 | Nutsedge plant response rating [2, 19]: 0 | Plant response rating, Nutsedge [2, 20]: 0 | Plant response rating, Nutsedge [2, 21]: 0 | Plant response rating, Nutsedge [2, 22]: 0 | Nutsedge plant response rating [2, 23]: 0 | Nutsedge plant response rating [2, 24]: 0 | Redroot pigweed plant response rating [3, 18]: 0 | Redroot pigweed plant response rating [3, 19]: 0 | Plant response rating, Redroot pigweed [3, 20]: 0 | Plant response rating, Redroot pigweed [3, 21]: 0 | Plant response rating, Redroot pigweed [3, 22]: 0 | Redroot pigweed plant response rating [3, 23]: 0 | Redroot pigweed plant response rating [3, 24]: 0 | Redroot pigweed plant response rating [3, 25]: 0 | Ducksalad plant response rating [4]: 0 | Soybean plant response rating [5, 18]: 0 | Soybean plant response rating [5, 19]: 0 | Plant response rating, Soybean [5, 20]: 0 | Plant response rating, Soybean [5, 21]: 0 | Plant response rating, Soybean [5, 22]: 0 | Soybean plant response rating [5, 23]: 0 | Soybean plant response rating [5, 24]: 0 | Velvetleaf plant response rating [6, 18]: 0 | Velvetleaf plant response rating [6, 19]: 0 | Plant response rating, Velvetleaf [6, 20]: 0 | Plant response rating, Velvetleaf [6, 21]: 0 | Plant response rating, Velvetleaf [6, 22]: 0 | Velvetleaf plant response rating [6, 23]: 0 | Velvetleaf plant response rating [6, 24]: 0 | Cocklebur plant response rating [7, 26]: 0 | Cocklebur plant response rating ([7]; Rate 250 g/ha, scale 0 to 10, 0 no effect, 10 complete control): 0 | Plant response rating, Cocklebur [7, 26]: 0 | Plant response rating, Cocklebur ([7]; Rate 125 g/ha, scale 0 to 10 (0 no effect, 10 complete control)): 0 | Plant response rating, Cocklebur ([7]; Rate 250 g/ha, scale of 0 to 10 where 0 is no effect and 10 is complete control): 0 | Cocklebur plant response rating ([7]; Rate 125 g/ha, scale 0 to 10, 0 no effect, 10 complete control): 0 | Cocklebur plant response rating ([7]; Rate 500 g/ha, 0 to 10 scale (0 no effect, 10 complete control)): 1 | Rape plant response rating [8, 18]: 0 | Rape plant response rating [8, 19]: 0 | Plant response rating, Rape [8, 20]: 0 | Plant response rating, Rape [8, 21]: 0 | Plant response rating, Rape [8, 22]: 0 | Rape plant response rating [8, 23]: 0 | Rape plant response rating [8, 24]: 0 | Rape plant response rating [8, 25]: 0 | Morningglory plant response rating [9, 18]: 0 | Morningglory plant response rating [9, 19]: 0 | Plant response rating, Morningglory [9, 20]: 0 | Plant response rating, Morningglory [9, 21]: 0 | Plant response rating, Morningglory [9, 22]: 0 | Morningglory plant response rating [9, 23]: 0 | Morningglory plant response rating [9, 24]: 0 | Morningglory plant response rating [9, 25]: 1 | Wheat plant response rating [10, 18]: 0 | Wheat plant response rating [10, 19]: 0 | Plant response rating, Wheat [10, 20]: 0 | Plant response rating, Wheat [10, 21]: 0 | Plant response rating, Wheat [10, 22]: 0 | Wheat plant response rating [10, 23]: 0 | Wheat plant response rating [10, 24]: 0 | Bedstraw plant response rating [11, 18]: 0 | Bedstraw plant response rating [11, 19]: 0 | Plant response rating, Bedstraw [11, 20]: 0 | Plant response rating, Bedstraw [11, 21]: 0 | Plant response rating, Bedstraw [11, 22]: 0 | Bedstraw plant response rating [11, 23]: 0 | Bedstraw plant response rating [11, 24]: 0 | Bedstraw plant response rating [11, 25]: 0 | Sugarbeets plant response rating [12, 18]: 0 | Sugarbeets plant response rating [12, 19]: 0 | Plant response rating, Sugarbeets [12, 20]: 0 | Plant response rating, Sugarbeets [12, 21]: 0 | Plant response rating, Sugarbeets [12, 22]: 0 | Sugarbeets plant response rating [12, 23]: 0 | Sugarbeets plant response rating [12, 24]: 0 | Giant foxtail plant response rating [13, 18]: 0 | Giant foxtail plant response rating [13, 19]: 0 | Plant response rating, Giant foxtail [13, 20]: 0 | Plant response rating, Giant foxtail [13, 21]: 0 | Plant response rating, Giant foxtail [13, 22]: 2 | Giant foxtail plant response rating [13, 23]: 3 | Giant foxtail plant response rating [13, 24]: 0 | Giant foxtail plant response rating [13, 25]: 0 | Crabgrass plant response rating [14, 18]: 0 | Crabgrass plant response rating [14, 19]: 0 | Plant response rating, Crabgrass [14, 20]: 0 | Plant response rating, Crabgrass [14, 21]: 0 | Plant response rating, Crabgrass [14, 22]: 3 | Crabgrass plant response rating [14, 23]: 5 | Crabgrass plant response rating [14, 24]: 0 | Crabgrass plant response rating [14, 25]: 3 | Corn plant response rating [15, 18]: 0 | Corn plant response rating [15, 19]: 0 | Plant response rating, Corn [15, 20]: 0 | Plant response rating, Corn [15, 21]: 0 | Plant response rating, Corn [15, 22]: 0 | Corn plant response rating [15, 23]: 0 | Corn plant response rating [15, 24]: 0 | Corn plant response rating [15, 25]: 0 | Blackgrass plant response rating [16, 18]: 0 | Blackgrass plant response rating [16, 19]: 0 | Plant response rating, Blackgrass [16, 20]: 0 | Plant response rating, Blackgrass [16, 21]: 0 | Plant response rating, Blackgrass [16, 22]: 0 | Blackgrass plant response rating [16, 23]: 0 | Blackgrass plant response rating [16, 24]: 0 | Blackgrass plant response rating [16, 25]: 0 | Wild oats plant response rating [17, 18]: 0 | Wild oats plant response rating [17, 19]: 0 | Plant response rating, Wild oats [17, 21]: 0 | Plant response rating, Wild oats [17, 22]: 0 | Wild oats plant response rating [17, 23]: 0 | Wild oats plant response rating [17, 24]: 0
